One experiment concerns mussel CALCRIIc. Briefly: Calcium mobilization assay (apoaequorin bioluminescence), dose-response, HEK 293 cells expressing mussel CALCRIIc. Format: cell-based, Mytilus coruscus. Conditions: HEK 293/apoaequorin, 1 μM to 0.01 nM. The source says: The complete sequence of the Mediterranean mussel CALCRIa was amplified using specific primers (Table 1) from cDNA of a tissue mixture (mantle, adductor muscle, gills, gonads) using a proofreading DNA polymerase (iProof BIORAD, Portugal) and cloned into the pGEMT-easy vector (PROMEGA, Spain). The Mediterranean mussel CALCRIIa transcript that was found in the mantle transcriptome was incomplete and lacked the N-terminus (by comparisons with the hard-shelled mussel homologue) and so the remaining sequence (from 1–393 bp) was deduced from the hard-shelled mussel homologue receptor and the receptor was synthesised and supplied by GENESCRIPT (USA). The complete transcripts for mussel CALCRIc, CALCRIIb and CALCRIIc were only found in the hard-shelled mussel mantle transcriptome and homologues were only found in the Mediterranean mussel genome as they were absent from the species mantle transcriptome and so they were also synthesised and supplied by GENESCRIPT (USA) using the hard-shelled mussel receptor sequences as template. […]
Mammalian cell cultures and transfections followed the methodology described by[89],[90]. […] Cell recovery was monitored daily and the medium was changed every two days until no cell death was observed. […]
(§1) HEK293 cells stably expressing five mussel receptors (CALCRIa, CALCRIc, CALCRIIa, CALCRIIb and CALCRIIc) were stimulated with the two mussel peptides and the vertebrate (human and salmon) calcitonins. Receptor activation was assessed in vitro by measuring two intracellular signalling pathways: a) production of cAMP and b) mobilization of calcium (Ca^2+). The cellular response was initially assessed using 10 μM of each peptide. […]
Stable cell lines expressing the mussel receptors were transiently co-transfected with the mitochondrial targeted apo-aequorin protein cloned in pcDNA3.1. Two days after transfection cells were washed, counted and resuspended in 1 ml of DMEM /F12 Ham (without phenol red)/0.1% BSA supplemented with 2 µM coelenterazine (SIGMA-ALDRICH). […]

A further experiment relates to mussel CALCRIa. Briefly: Calcium mobilization assay (apoaequorin bioluminescence), dose-response, HEK 293 cells expressing mussel CALCRIa. In kind it is cell-based, Mytilus galloprovincialis. Conditions: for pEC50: HEK 293 cells stably expressing receptor, co-transfected with apoaequorin, peptide 1 μM to 0.01 nM, three independent assays in duplicate, read-out: EC50, activation of mussel CALCRIa (intracellular calcium mobilization); for Activation of mussel CALCRIa in dose-response analysis (in words): calcium mobilization, HEK 293/apoaequorin, 1 μM to 0.01 nM.
Description: (§2) The complete sequence of the Mediterranean mussel CALCRIa was amplified using specific primers (Table 1) from cDNA of a tissue mixture (mantle, adductor muscle, gills, gonads) using a proofreading DNA polymerase (iProof BIORAD, Portugal) and cloned into the pGEMT-easy vector (PROMEGA, Spain). The Mediterranean mussel CALCRIIa transcript that was found in the mantle transcriptome was incomplete and lacked the N-terminus (by comparisons with the hard-shelled mussel homologue) and so the remaining sequence (from 1–393 bp) was deduced from the hard-shelled mussel homologue receptor and the receptor was synthesised and supplied by GENESCRIPT (USA). The complete transcripts for mussel CALCRIc, CALCRIIb and CALCRIIc were only found in the hard-shelled mussel mantle transcriptome and homologues were only found in the Mediterranean mussel genome as they were absent from the species mantle transcriptome and so they were also synthesised and supplied by GENESCRIPT (USA) using the hard-shelled mussel receptor sequences as template. The mussel CALCRIb transcript was incomplete and lacked both N and C-terminal regions and it was not possible to obtain the complete transcript either by searching both mussels mantle transcriptomes or the Mediterranean mussel genome and so it was not produced. All synthetized receptors were provided in the pUC57 cloning vector by the company and receptor codon usage was optimized to favour a high level of expression in mammalian cells.
(§3) Mammalian cell cultures and transfections followed the methodology described by[89],[90]. Mammalian HEK293 cells (ECACC, UK) were used and they were maintained in complete Dulbecco’s modified Eagle’s medium (DMEM, 4.5 g/l glucose, 110 mg/l sodium pyruvate and L-glutamine, SIGMA-ALDRICH, Spain) supplemented with 10% sterile foetal bovine serum (FBS), 0.1% penicillin: streptomycin antibiotic mix (10,000 U:10 mg/ml, Sigma) and 250 μg /ml sterile filtered 1:100 amphotericin B solution (SIGMA-ALDRICH) in a humid 5% CO2 incubator (HERAEUS, Portugal) at 37 °C. On the day prior to transfection, 2–3 × 10^5 HEK293 cells were seeded on 6 well plates (SARSTEDT, Portugal) and transfected with Fugene HD transfection reagent (2 DNA: 4 Fugene ratio, PROMEGA) following the manufacturer’s protocol. Seventy-two hours after transfection, 800 μg/ml of the antibiotic Geneticin (SIGMA-ALDRICH) was added to the medium to select and isolate stable receptor cell lines. Cell recovery was monitored daily and the medium was changed every two days until no cell death was observed. […]
as §1
(§4) Stable cell lines expressing the mussel receptors were transiently co-transfected with the mitochondrial targeted apo-aequorin protein cloned in pcDNA3.1. Two days after transfection cells were washed, counted and resuspended in 1 ml of DMEM /F12 Ham (without phenol red)/0.1% BSA supplemented with 2 µM coelenterazine (SIGMA-ALDRICH). […] The injector system of the Biotek Synergy 4 microplate reader (USA) was used to inject 50 µl of the cell suspensions into wells containing 50 μl of the diluted peptide in DMEM / F12 Ham / 0.1% BSA. […]

The next experiment deals with mussel CALCRIIa. Briefly: Calcium mobilization assay (apoaequorin bioluminescence), dose-response, HEK 293 cells expressing mussel CALCRIIa. In kind it is cell-based, Mytilus galloprovincialis. The settings on record: for pEC50: HEK 293 cells stably expressing receptor, co-transfected with apoaequorin, peptide 1 μM to 0.01 nM, three independent assays in duplicate, read-out: EC50, activation of mussel CALCRIIa (intracellular calcium mobilization); for Activation of mussel CALCRIIa in dose-response analysis (in words): calcium mobilization, HEK 293/apoaequorin, 1 μM to 0.01 nM.
Description: as §2, §3, §1, §4

The test system of experiment [1] is mussel CALCR-like (CALCRIa, CALCRIc, CALCRIIa, CALCRIIb and CALCRIIc). In words: cAMP assay in HEK 293 cells stably expressing the mussel receptors. In kind it is cell-based. Conditions: 10 µM peptide, 30 min at 37 °C, 1 mM IBMX; % of Forskolin (10uM) response; single experiment in triplicate (Supplementary Figure 7A). On the procedure:
Mammalian cell cultures and transfections followed the methodology described by[89],[90]. Mammalian HEK293 cells (ECACC, UK) were used and they were maintained in complete Dulbecco’s modified Eagle’s medium (DMEM, 4.5 g/l glucose, 110 mg/l sodium pyruvate and L-glutamine, SIGMA-ALDRICH, Spain) supplemented with 10% sterile foetal bovine serum (FBS), 0.1% penicillin: streptomycin antibiotic mix (10,000 U:10 mg/ml, Sigma) and 250 μg /ml sterile filtered 1:100 amphotericin B solution (SIGMA-ALDRICH) in a humid 5% CO2 incubator (HERAEUS, Portugal) at 37 °C. […] Cell recovery was monitored daily and the medium was changed every two days until no cell death was observed. […]
as §1
The amount of cAMP produced was determined using a competitive immunoassay with a cryptate labelled anti-cAMP antibody (CISBIO, France) and followed the methodology describe by[89],[90]. […]

The next experiment concerns mussel mantle edge. Briefly: Ex-vivo incubation of mantle edge fragments, calcium quantification by MP-AES. The arrangement: species or system Mytilus galloprovincialis. The settings on record: Verapamil 200 µM, 4 hours; data not shown. The protocol:
Figure 7 Effect of the mussel calcitonin-like peptide on (A) calcium (ppm) concentration in the mantle edge and (B) calcium uptake by mantle cells of the Mediterranean mussel. (A) The quantity of calcium (ppm) present in the mantle edge after mussel CALCIIa peptide incubation was measured using a Microwave Plasma-Atomic Emission Spectrometer (MP-AES, Agilent) at 393.366 nm. A standard curve for calcium was performed before analysing the samples. In vitro mantle assays with CALCIIa peptide and with ouabain and control (culture medium and mantle) were repeated on at least 3 independent occasions. For each assay at least ten replicates were performed and the mantle edge distal to the umbo was used (one mantle fragment per replica). Prism GraphPad v5 software was used to assess the significance of differences between the groups using a One-way Anova and Tukey’s multiple comparison test. […] C - control (no peptide or ouabain); P - peptide (10 μM); O - ouabain (2 mM), OP - ouabain (2 mM) and peptide (10 μM); PreOP - pre -stimulation for 1 hour with the peptide followed by 4 hours incubation with OP. (B) Digital photographs of the mussel mantle cells in the presence (CALCIIa, 10 μM) or absence (control) of the mussel CALCIIa peptide. Calcium ions were stained with 50 mM of Calcein (green) and cell nuclei (blue) with DAPI (Acros Organics). An increase in cellular fluorescence represents an increase in calcium uptake. Fluorescence of the CALCIIa peptide stimulated cells was 1.9 times higher than the control. The average mantle cell size was 3–4 μm and fluorescent images were taken using a Leica DM IL microscope coupled to a Visicam HDMI 6 digital camera and photographs were analysed using ImageJ software (v. 1.52a) to calculate the fluorescence intensity and for image overlay. The scale bar is indicated.
The posterior mantle edge region of the Mediterranean mussel was collected and washed in culture medium. The composition of the culture medium was as described in[91] […]

pEC50: −log10 of the molar value.

As for `CC(C)C[C@H](NC(=O)[C@H](CCCCN)NC(=O)CNC(=O)[C@H](CC(C)C)NC(=O)[C@@H](NC(=O)[C@@H]1CSSC[C@H](N)C(=O)N[C@@H](CO)C(=O)N[C@@H](CC(N)=O)C(=O)N[C@@H](CC(C)C)C(=O)N[C@@H](CO)C(=O)N[C@@H]([C@@H](C)O)C(=O)N1)C(C)C)C(=O)N[C@@H](CO)C(=O)N[C@@H](CCC(N)=O)C(=O)N[C@@H](CCC(=O)O)C(=O)N[C@@H](CC(C)C)C(=O)N[C@@H](Cc1c[nH]cn1)C(=O)N[C@@H](CCCCN)C(=O)N[C@@H](CC(C)C)C(=O)N[C@@H](CCC(N)=O)C(=O)N[C@H](C(=O)N[C@@H](Cc1ccc(O)cc1)C(=O)N1CCC[C@H]1C(=O)N[C@@H](CCCNC(=N)N)C(=O)N[C@H](C(=O)N[C@@H](CC(N)=O)C(=O)N[C@H](C(=O)NCC(=O)N[C@@H](CO)C(=O)NCC(=O)N[C@H](C(=O)N1CCC[C@H]1C(N)=O)[C@@H](C)O)[C@@H](C)O)[C@@H](C)O)[C@@H](C)O` [salmon calcitonin, calcitonin], the “Activation of mussel CALCRIIc in dose-response analysis (in words)” value with mussel CALCRIIc was “but not CALCRIIc”. Besides, in the experiment on mussel CALCRIa, the pEC50 is 8.30 and the “Activation of mussel CALCRIa in dose-response analysis (in words)” value is listed as “activated”. In addition, in the experiment on mussel CALCRIIa, the pEC50 was 7.85 and the “Activation of mussel CALCRIIa in dose-response analysis (in words)” value is listed as “activated”. Besides, the “Stimulation of all mussel receptors via the cAMP pathway (in words)” value in experiment [1] is given as “stimulated”.

As to `CC[C@H](C)[C@H](NC(=O)[C@H](C)NC(=O)[C@@H](NC(=O)[C@H](CCC(N)=O)NC(=O)[C@@H]1CCCN1C(=O)[C@H](Cc1ccccc1)NC(=O)[C@@H](NC(=O)[C@H](Cc1c[nH]cn1)NC(=O)[C@H](Cc1ccccc1)NC(=O)[C@H](CCCCN)NC(=O)[C@H](CC(N)=O)NC(=O)[C@H](Cc1ccccc1)NC(=O)[C@H](CC(=O)O)NC(=O)[C@H](CCC(N)=O)NC(=O)[C@@H](NC(=O)[C@H](Cc1ccc(O)cc1)NC(=O)[C@@H](NC(=O)CNC(=O)[C@H](CC(C)C)NC(=O)[C@H](CCSC)NC(=O)[C@@H]1CSSC[C@H](N)C(=O)NCC(=O)N[C@@H](CC(N)=O)C(=O)N[C@@H](CC(C)C)C(=O)N[C@@H](CO)C(=O)N[C@@H]([C@@H](C)O)C(=O)N1)[C@@H](C)O)[C@@H](C)O)[C@@H](C)O)[C@@H](C)O)C(=O)NCC(=O)N[C@H](C(=O)NCC(=O)N[C@@H](C)C(=O)N1CCC[C@H]1C(N)=O)C(C)C` [human calcitonin, calcitonin], the “Activation of mussel CALCRIIc in dose-response analysis (in words)” value in the experiment with mussel CALCRIIc is recorded as “but not CALCRIIc”. In the experiment with mussel CALCRIa, the pEC50 was 8.02 and the “Activation of mussel CALCRIa in dose-response analysis (in words)” value is listed as “activated”. Besides, in the experiment on mussel CALCRIIa, the pEC50 was 6.30 and the “Activation of mussel CALCRIIa in dose-response analysis (in words)” value was “activated”. Further, the “Stimulation of all mussel receptors via the cAMP pathway (in words)” value in experiment [1] is reported as “stimulated”.

With `COc1ccc(CCN(C)CCCC(C#N)(c2ccc(OC)c(OC)c2)C(C)C)cc1OC` (stereo not shown) [Verapamil], in the experiment on mussel mantle edge, the “Calcium concentration of mantle fragments relative to the control (in words)” value was “did not change”.

By pEC50 is commonly meant the EC50 on a negative log10 scale, so that one unit is a factor of ten.

The values above are taken from publication PMC7200681, “The calcitonin-like system is an ancient regulatory system of biomineralization” (Scientific Reports, 2020).
